One experiment deals with A549/ATCC. Particulars: 10 μM.
Another experiment deals with SW-620. The following applies: SW-620, 10 μM.
The test system of another experiment is K-562. The following applies: K-562, 10 μM.
The subject of a further experiment is M14. Nature of the experiment: NCI SRB screening. The following applies: M14, 10 μM. The class given is cell-based.
The subject of another experiment is NCI-H226. The following applies: NCI-H226, 10 μM.
The subject of a further experiment is SNB-75. Particulars: SNB-75, 10 μM.
The test system of another experiment is NCI-H23. The following applies: NCI-H23, 10 μM.
The next experiment concerns OVCAR-8. The following applies: OVCAR-8, 10 μM.
Another experiment relates to IGROV1. Particulars: IGROV1, 10 μM.
The test system of a further experiment is UACC-62. The following applies: UACC-62, 10 μM.
The subject of a further experiment is SF-295. The following applies: SF-295, 10 μM.
The subject of another experiment is A498. The following applies: A498, 10 μM.
The subject of the next experiment is MCF7. The following applies: MCF7, 10 μM.
The next experiment concerns T-47D. Particulars: 10 μM.
Another experiment has as its system NCI-H322M. The experiment is described as follows: NCI SRB screening. Particulars: 10 μM.
Another experiment has as its system U251. The following applies: U251, 10 μM.
The next experiment has as its system MDA-MB-468. Particulars: MDA-MB-468, 10 μM.
A further experiment deals with MDA-MB-435. The experiment is described as follows: NCI SRB screening. Format: cell-based. Particulars: MDA-MB-435, 10 μM.
In a further experiment the test system is SF-539. Particulars: SF-539, 10 μM.

For `CCCn1cc(/C=N/N=C2\C(=O)Nc3ccc(OC(F)(F)F)cc32)c2ccccc21` [Compound 8b], the GI % is listed as 28% with A549/ATCC; “– (Only GI % higher than 10% are shown)” in the experiment with SW-620; 33% in the experiment on K-562; “– (Only GI % higher than 10% are shown)” with M14; “– (Only GI % higher than 10% are shown)” with NCI-H226; “– (Only GI % higher than 10% are shown)” in the experiment with SNB-75. Moreover, the GI % with NCI-H23 is 12%; with OVCAR-8, 15%; with IGROV1, “– (Only GI % higher than 10% are shown)”; in the experiment on UACC-62, 11%; in the experiment with SF-295 it was “– (Only GI % higher than 10% are shown)”; with A498 it was “– (Only GI % higher than 10% are shown)”. Also, the GI % with MCF7 is 29%; with T-47D it was 35%; in the experiment on NCI-H322M, “– (Only GI % higher than 10% are shown)”; in the experiment on U251, 13.32%; in the experiment with MDA-MB-468 it was 11%; in the experiment with MDA-MB-435 it was “– (Only GI % higher than 10% are shown)”. In addition, in the experiment with SF-539, the GI % result is recorded as “– (Only GI % higher than 10% are shown)”.
With `CCCn1cc(C=NN=C2C(=O)Nc3ccc([N+](=O)[O-])cc32)c2ccccc21` [Compound 8c], the GI % was 13% with A549/ATCC; “– (Only GI % higher than 10% are shown)” in the experiment on SW-620; 18% in the experiment with K-562; “– (Only GI % higher than 10% are shown)” in the experiment with M14; “– (Only GI % higher than 10% are shown)” with NCI-H226; “– (Only GI % higher than 10% are shown)” in the experiment with SNB-75. Besides, the GI % result was “– (Only GI % higher than 10% are shown)” in the experiment on NCI-H23; 29% with OVCAR-8; “– (Only GI % higher than 10% are shown)” in the experiment with IGROV1; “– (Only GI % higher than 10% are shown)” in the experiment with UACC-62; “– (Only GI % higher than 10% are shown)” with SF-295; “– (Only GI % higher than 10% are shown)” in the experiment on A498. The GI % with MCF7 is given as 15%; with T-47D, “– (Only GI % higher than 10% are shown)”; in the experiment on NCI-H322M, “– (Only GI % higher than 10% are shown)”; in the experiment with U251 it was 28%; with MDA-MB-468 it was 17%; in the experiment on MDA-MB-435, “– (Only GI % higher than 10% are shown)”. In addition, the GI % with SF-539 is on record as 10%.
Regarding `CC(C)n1cc(C=NN=C2C(=O)Nc3ccccc32)c2ccccc21` [Compound 9], the GI % entry with A549/ATCC is on record as “– (Only GI % higher than 10% are shown)”; with SW-620, “– (Only GI % higher than 10% are shown)”; in the experiment on K-562, “– (Only GI % higher than 10% are shown)”; in the experiment on M14 it was “– (Only GI % higher than 10% are shown)”; with NCI-H226, 16%; with SNB-75, 33%. In addition, the GI % entry in the experiment with NCI-H23, with OVCAR-8, with IGROV1, in the experiment with UACC-62, in the experiment with SF-295 and in the experiment with A498 was “– (Only GI % higher than 10% are shown)” throughout. Also, the GI % is on record as 10% in the experiment on MCF7; 13% in the experiment on T-47D; “– (Only GI % higher than 10% are shown)” in the experiment with NCI-H322M; “– (Only GI % higher than 10% are shown)” in the experiment with U251; “– (Only GI % higher than 10% are shown)” in the experiment on MDA-MB-468; “– (Only GI % higher than 10% are shown)” with MDA-MB-435. In the experiment with SF-539, the GI % entry is given as “– (Only GI % higher than 10% are shown)”.
Regarding `C=CCn1cc(C=NN=C2C(=O)Nc3ccccc32)c2ccccc21` [Compound 10a], the GI % result in the experiment with A549/ATCC was “– (Only GI % higher than 10% are shown)”; in the experiment on SW-620, “– (Only GI % higher than 10% are shown)”; in the experiment on K-562, 30%; in the experiment with M14, 12%; with NCI-H226 it was 13%; in the experiment with SNB-75, 18%. The GI % is on record as 12% in the experiment on NCI-H23; 15% in the experiment on OVCAR-8; 28% with IGROV1; 25% in the experiment with UACC-62; “– (Only GI % higher than 10% are shown)” in the experiment with SF-295; “– (Only GI % higher than 10% are shown)” with A498. Also, the GI % with MCF7 is recorded as 33%; in the experiment on T-47D, 56%; in the experiment with NCI-H322M it was “– (Only GI % higher than 10% are shown)”; with U251, 10%; with MDA-MB-468, 20%; in the experiment on MDA-MB-435, “– (Only GI % higher than 10% are shown)”. Further, in the experiment with SF-539, the GI % result was “– (Only GI % higher than 10% are shown)”.
As for `C=CCn1cc(C=NN=C2C(=O)Nc3c(F)cccc32)c2ccccc21` [Compound 10c], the GI % entry with A549/ATCC is “– (Only GI % higher than 10% are shown)”; in the experiment with SW-620, “– (Only GI % higher than 10% are shown)”; in the experiment on K-562, 20%; with M14, “– (Only GI % higher than 10% are shown)”; with NCI-H226, 56%; with SNB-75 it was “– (Only GI % higher than 10% are shown)”. The GI % result is given as “– (Only GI % higher than 10% are shown)” in the experiment on NCI-H23; 11% with OVCAR-8; 31% in the experiment on IGROV1; 15% in the experiment with UACC-62; “– (Only GI % higher than 10% are shown)” with SF-295; “– (Only GI % higher than 10% are shown)” in the experiment on A498. The GI % in the experiment on MCF7 is listed as 31%; in the experiment on T-47D, 50%; in the experiment with NCI-H322M, “– (Only GI % higher than 10% are shown)”; in the experiment on U251, “– (Only GI % higher than 10% are shown)”; in the experiment with MDA-MB-468, 54%; in the experiment on MDA-MB-435, “– (Only GI % higher than 10% are shown)”. Moreover, the GI % result in the experiment on SF-539 is on record as “– (Only GI % higher than 10% are shown)”.
Regarding `C=CCn1cc(C=NN=C2C(=O)Nc3ccc(Cl)cc32)c2ccccc21` [Compound 10d], the GI % entry is listed as “– (Only GI % higher than 10% are shown)” in the experiment on A549/ATCC; “– (Only GI % higher than 10% are shown)” in the experiment with SW-620; “– (Only GI % higher than 10% are shown)” in the experiment on K-562; “– (Only GI % higher than 10% are shown)” with M14; 41% in the experiment on NCI-H226; “– (Only GI % higher than 10% are shown)” in the experiment on SNB-75. Besides, the GI % result in the experiment on NCI-H23 is given as “– (Only GI % higher than 10% are shown)”; with OVCAR-8 it was “– (Only GI % higher than 10% are shown)”; in the experiment on IGROV1 it was 23%; in the experiment with UACC-62, 19%; with SF-295 it was “– (Only GI % higher than 10% are shown)”; in the experiment with A498 it was “– (Only GI % higher than 10% are shown)”. Besides, the GI % is listed as 18% in the experiment on MCF7; 30% in the experiment with T-47D; “– (Only GI % higher than 10% are shown)” with NCI-H322M; “– (Only GI % higher than 10% are shown)” in the experiment with U251; 36% with MDA-MB-468; “– (Only GI % higher than 10% are shown)” in the experiment on MDA-MB-435. For the same compound, in the experiment with SF-539, the GI % entry was “– (Only GI % higher than 10% are shown)”.

The values are drawn from paper PMC7717600, “Novel [(N-alkyl-3-indolylmethylene)hydrazono]oxindoles arrest cell cycle and induce cell apoptosis by inhibiting CDK2 and Bcl-2: synthesis, biological evaluation and in silico studies” (Journal of Enzyme Inhibition and Medicinal Chemistry, 2020).
